# Measurements reported in patent US11420969B2 (Exonate Limited, priority 2017, dated 2022).
# Like-named read-outs stand apart in the source and are kept apart here.
# Experiments:
# CYP1A2 = biological target: T1, CYP1A2 (Homo sapiens, UniProt P05177); assay: CYP inhibition assay, human liver microsomes, substrate tacrine; type: in vitro ADME
# T1 construct: from tissue; host or cells: human liver microsomes
# T1 sequence (P05177 1-516): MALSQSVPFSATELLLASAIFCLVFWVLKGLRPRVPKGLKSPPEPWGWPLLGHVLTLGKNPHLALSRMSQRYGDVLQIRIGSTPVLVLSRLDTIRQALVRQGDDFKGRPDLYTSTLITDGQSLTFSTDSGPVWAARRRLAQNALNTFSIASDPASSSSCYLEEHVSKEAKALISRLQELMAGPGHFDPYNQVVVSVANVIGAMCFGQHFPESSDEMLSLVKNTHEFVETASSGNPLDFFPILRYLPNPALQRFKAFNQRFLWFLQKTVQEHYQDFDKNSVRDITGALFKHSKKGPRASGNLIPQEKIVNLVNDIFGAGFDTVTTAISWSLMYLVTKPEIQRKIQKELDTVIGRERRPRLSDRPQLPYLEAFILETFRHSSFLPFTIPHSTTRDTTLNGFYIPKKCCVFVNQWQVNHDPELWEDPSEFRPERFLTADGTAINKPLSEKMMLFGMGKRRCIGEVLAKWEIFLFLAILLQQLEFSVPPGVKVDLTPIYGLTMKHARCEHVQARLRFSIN
# Experimental: (§1) 2 μL of test compound/Positive Inhibitor working solutions is then added to the reaction plate (2 μL/well). For control, 2 μL of Acetonitrile (ACN) containing DMSO (without inhibitor) is added to the reaction plate. 20 μL of substrate pool is added to all the wells of the reaction plate. The samples are mixed in a vortexer and pre-incubated at 37° C. for 20 min. The NADPH solution is pre-warmed at 37° C. for 5 min. 20 μL of pre-warmed NADPH solution is added to the reaction plate and then incubated at 37° C. for 10 min. The reaction is terminated by adding cold ACN (200 μL/well) to the reaction mixture and centrifuging at 4,000 rpm for 20 minutes. After centrifugation, supernatant is separated and analyzed by LC-MS/MS.
# (§2) % inhibition and IC50 are calculated using Graphpad Prism software.
# CYP2D6 = biological target: T2, CYP2D6 (Homo sapiens, UniProt P10635); assay: biochemical; type: in vitro ADME
# T2 construct: from tissue; host or cells: human liver microsomes
# Experimental: 158 μL of Human Liver Microsomes working stock solution is added to a reaction plate (0.253 mg/mL, 158 μL/well). 2 μL of test compound/Positive Inhibitor working solutions is then added to the reaction plate (2 μL/well). For control, 2 μL of Acetonitrile (ACN) containing DMSO (without inhibitor) is added to the reaction plate. 20 μL of substrate pool is added to all the wells of the reaction plate. The samples are mixed in a vortexer and pre-incubated at 37° C. for 20 min. The NADPH solution is pre-warmed at 37° C. for 5 min. 20 μL of pre-warmed NADPH solution is added to the reaction plate and then incubated at 37° C. for 10 min. The reaction is terminated by adding cold ACN (200 μL/well) to the reaction mixture and centrifuging at 4,000 rpm for 20 minutes. After centrifugation, supernatant is separated and analyzed by LC-MS/MS.
# as §2
# SRPK1 = SRPK1 (Homo sapiens, UniProt Q96SB4); assay: In vitro SRPK1 assay (Kinase-Glo); type: biochemical
# CYP2C19 = biological target: T3, CYP2C19 (Homo sapiens, UniProt P33261); assay: CYP inhibition assay, human liver microsomes, substrate S-mephenytoin; type: in vitro ADME
# T3 construct: from tissue; host or cells: human liver microsomes
# Experimental: as §1, §2
# CYP2C9 = biological target: T4, CYP2C9 (Homo sapiens, UniProt P11712); assay: CYP inhibition assay, human liver microsomes, substrate diclofenac; type: in vitro ADME
# T4 construct: from tissue; host or cells: human liver microsomes
# Experimental: as §1, §2
# CYP3A4 = biological target: T5, CYP3A4 (Homo sapiens, UniProt P08684); assay: CYP inhibition assay, human liver microsomes, substrate midazolam; type: in vitro ADME
# T5 construct: from tissue; host or cells: human liver microsomes
# Experimental: as §1, §2
# [1] = human liver microsomes, 10 min incubation, LC-MS/MS, read-out: CYP Inhibition Activity (IC50/nM) CYP1A2
# [2] = human liver microsomes, 10 min incubation, LC-MS/MS, read-out: CYP Inhibition Activity (IC50/nM) CYP2C19
# [3] = human liver microsomes, 10 min incubation, LC-MS/MS, read-out: CYP Inhibition Activity (IC50/nM) CYP2C9
# [4] = human liver microsomes, 10 min incubation, LC-MS/MS, read-out: CYP Inhibition Activity (IC50/nM) CYP3A4
# T3 sequence (P33261 whole entry): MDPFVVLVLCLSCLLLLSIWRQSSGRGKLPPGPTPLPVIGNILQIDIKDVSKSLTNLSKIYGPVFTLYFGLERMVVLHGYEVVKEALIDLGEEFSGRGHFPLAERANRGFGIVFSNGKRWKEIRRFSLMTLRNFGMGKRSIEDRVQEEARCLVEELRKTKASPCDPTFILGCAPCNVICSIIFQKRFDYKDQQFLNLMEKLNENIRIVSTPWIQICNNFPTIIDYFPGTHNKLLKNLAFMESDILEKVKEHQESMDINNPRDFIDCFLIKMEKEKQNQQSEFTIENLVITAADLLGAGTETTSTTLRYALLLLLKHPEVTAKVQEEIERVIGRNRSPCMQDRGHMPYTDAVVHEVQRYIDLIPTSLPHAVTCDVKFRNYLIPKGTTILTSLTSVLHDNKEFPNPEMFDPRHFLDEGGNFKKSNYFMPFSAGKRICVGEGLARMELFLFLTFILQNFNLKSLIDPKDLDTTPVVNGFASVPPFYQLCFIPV
# T2 sequence (P10635 whole entry): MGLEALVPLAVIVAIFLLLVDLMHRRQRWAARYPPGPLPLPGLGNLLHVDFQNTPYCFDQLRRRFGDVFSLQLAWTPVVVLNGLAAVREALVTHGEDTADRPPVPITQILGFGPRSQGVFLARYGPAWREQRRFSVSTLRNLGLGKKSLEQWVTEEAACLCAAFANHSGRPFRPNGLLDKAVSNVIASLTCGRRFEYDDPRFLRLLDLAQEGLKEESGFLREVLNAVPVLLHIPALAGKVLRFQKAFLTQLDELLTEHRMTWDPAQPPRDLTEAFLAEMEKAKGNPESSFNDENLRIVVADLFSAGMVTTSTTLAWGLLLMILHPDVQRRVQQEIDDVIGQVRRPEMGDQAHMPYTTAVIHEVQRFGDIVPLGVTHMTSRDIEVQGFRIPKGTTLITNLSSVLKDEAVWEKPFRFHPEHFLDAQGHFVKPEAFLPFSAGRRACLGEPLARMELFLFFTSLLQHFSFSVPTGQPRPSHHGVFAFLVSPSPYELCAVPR
# T4 sequence (P11712 whole entry): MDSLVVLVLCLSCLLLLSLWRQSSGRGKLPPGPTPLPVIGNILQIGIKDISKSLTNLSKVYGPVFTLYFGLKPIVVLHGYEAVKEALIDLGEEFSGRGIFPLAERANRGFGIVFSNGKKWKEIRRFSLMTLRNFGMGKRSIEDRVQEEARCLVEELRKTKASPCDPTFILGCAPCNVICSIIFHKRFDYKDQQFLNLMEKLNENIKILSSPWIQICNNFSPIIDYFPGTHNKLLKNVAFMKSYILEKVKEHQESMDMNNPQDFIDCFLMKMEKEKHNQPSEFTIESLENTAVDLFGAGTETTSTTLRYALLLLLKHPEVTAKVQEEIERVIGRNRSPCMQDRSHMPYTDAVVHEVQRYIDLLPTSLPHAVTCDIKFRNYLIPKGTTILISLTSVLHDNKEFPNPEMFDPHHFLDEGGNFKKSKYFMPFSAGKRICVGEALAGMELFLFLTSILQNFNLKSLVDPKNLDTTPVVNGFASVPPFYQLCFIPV
# Chain of SRPK1 (Q96SB4 whole entry, species assumed): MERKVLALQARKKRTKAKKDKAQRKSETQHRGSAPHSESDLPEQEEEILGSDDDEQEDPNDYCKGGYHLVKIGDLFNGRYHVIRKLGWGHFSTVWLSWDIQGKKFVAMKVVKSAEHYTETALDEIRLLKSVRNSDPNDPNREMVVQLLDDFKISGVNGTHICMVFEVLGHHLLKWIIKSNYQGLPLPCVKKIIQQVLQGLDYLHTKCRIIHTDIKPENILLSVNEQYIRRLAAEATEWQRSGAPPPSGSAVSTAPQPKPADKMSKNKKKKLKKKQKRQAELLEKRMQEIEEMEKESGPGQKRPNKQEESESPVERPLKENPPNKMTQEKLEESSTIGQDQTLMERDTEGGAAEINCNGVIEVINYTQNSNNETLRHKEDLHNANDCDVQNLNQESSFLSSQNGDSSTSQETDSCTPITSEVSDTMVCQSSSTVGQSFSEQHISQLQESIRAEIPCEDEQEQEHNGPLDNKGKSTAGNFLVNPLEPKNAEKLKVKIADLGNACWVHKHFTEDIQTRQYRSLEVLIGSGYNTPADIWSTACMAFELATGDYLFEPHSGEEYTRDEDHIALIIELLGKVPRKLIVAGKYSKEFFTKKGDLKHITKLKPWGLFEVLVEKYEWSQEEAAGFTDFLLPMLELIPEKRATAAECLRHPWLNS
# T5 sequence (P08684 whole entry): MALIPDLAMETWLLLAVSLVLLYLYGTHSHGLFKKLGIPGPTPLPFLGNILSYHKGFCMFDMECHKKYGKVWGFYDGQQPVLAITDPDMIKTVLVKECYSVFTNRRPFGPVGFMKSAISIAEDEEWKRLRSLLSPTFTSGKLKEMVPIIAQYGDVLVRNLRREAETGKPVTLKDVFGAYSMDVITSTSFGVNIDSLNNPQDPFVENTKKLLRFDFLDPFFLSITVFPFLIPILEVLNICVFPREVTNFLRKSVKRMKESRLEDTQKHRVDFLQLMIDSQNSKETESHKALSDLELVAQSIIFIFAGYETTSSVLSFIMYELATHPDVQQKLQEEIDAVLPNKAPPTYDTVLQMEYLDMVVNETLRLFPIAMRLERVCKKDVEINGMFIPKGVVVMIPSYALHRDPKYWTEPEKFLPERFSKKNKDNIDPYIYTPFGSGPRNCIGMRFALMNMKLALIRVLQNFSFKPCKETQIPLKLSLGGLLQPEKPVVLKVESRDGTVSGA
Compound,IC50 (CYP1A2; [1]) [nM],IC50 (CYP2D6) [nM],IC50 (SRPK1) [nM],IC50 (CYP2C19; [2]) [nM],IC50 (CYP2C9; [3]) [nM],IC50 (CYP3A4; [4]) [nM],"IC50 (CYP2D6; human liver microsomes, 10 min incubation, LC-MS/MS, read-out: CYP Inhibition Activity (IC50/nM) CYP2D6) [nM]",IC50 (CYP2C9) [nM],IC50 (CYP1A2; microsomes) [nM],IC50 (CYP2D6; microsomes) [nM],IC50 (CYP2C19; microsomes) [nM],IC50 (CYP2C9; microsomes) [nM],IC50 (CYP3A4; microsomes) [nM]
O=C(Nc1cc(C(F)(F)F)ccc1N1CCC(O)(Cc2ccccc2)CC1)c1ccc(C2CCOCC2)o1 [Example 19],15300,> 30000,39,12300,12700,18800,,,,,,,
"O=C(Nc1cc(C(F)(F)F)ccc1N1CCC(C(=O)O)CC1)c1ccccn1 [Example 30, 1-(2-(picolinamido)-4-(trifluoromethyl)phenyl)-piperidine-4-carboxylic acid]",,,76,,,,,,,,,,
"C[C@@]1(O)CCN(c2ccc(C(F)(F)F)cc2NC(=O)c2ccc(C3CCOCC3)o2)C1 [Example 50, (R)-N-(2-(3-hydroxy-3-methylpyrrolidin-1-yl)-5-(trifluoromethyl)phenyl)-5-(tetrahydro-2H-pyran-4-yl)furan-2-carboxamide]",5300,> 30000,28.8,24500,9000,> 30000,,,,,,,
"CC1(O)CCN(c2ccc(Cl)cc2NC(=O)c2ccc(C3CCOCC3)o2)C1 (racemic) [Example 60, N-(5-chloro-2-(3-hydroxy-3-methylpyrrolidin-1-yl)phenyl)-5-(tetrahydro-2H-pyran-4-yl)furan-2-carboxamide]",> 30000,> 30000,71,22600,> 30000,> 30000,,,,,,,
"CC1(C)CCN(c2ccc(C(F)(F)F)cc2NC(=O)c2ccc(-c3ccncc3)o2)CC1 [Example 28, N-(2-(4,4-dimethylpiperidin-1-yl)-5-(trifluoromethyl)phenyl)-5-(pyridin-4-yl)furan-2-carboxamide]",> 30000,> 30000,15,> 30000,> 30000,> 30000,,,,,,,
"O=C(Nc1cc(C(F)(F)F)ccc1N1CCN(Cc2cc[nH]n2)CC1)c1ccc(C2CCOCC2)o1 [Reference Example 3, N-(2-(4-((1H-pyrazol-3-yl)methyl)piperazin-1-yl)-5-(trifluoromethyl)-phenyl)-5-(tetrahydro-2H-pyran-4-yl)furan-2-carboxamide, reference compound]",> 30000,7080,,610,230,4160,,,,,,,
"CC1(C(N)=O)CCN(c2ccc(C(F)(F)F)cc2NC(=O)c2ccc(C3CCOCC3)o2)CC1 [Example 75, 4-methyl-1-(2-(5-(tetrahydro-2H-pyran-4-yl)furan-2-carboxamido)-4-(trifluoromethyl)-phenyl)piperidine-4-carboxamide]",> 30000,11800,2.8,10800,4400,10300,,,,,,,
"CC1(CN)CCN(c2ccc(C(F)(F)F)cc2NC(=O)c2ccc(-c3ccncc3)o2)CC1 [Example 78, N-(2-(4-(aminomethyl)-4-methylpiperidin-1-yl)-5-(trifluoromethyl)phenyl)-5-(pyridin-4-yl)furan-2-carboxamide]",> 30000,1290,9.1,20000,9130,8320,,,,,,,
"COc1ccc(N2CCC(C)(C(=O)N(C)C)CC2)c(NC(=O)c2ccc(C3CCOCC3)o2)c1 [Example 85, 1-(4-methoxy-2-(5-(tetrahydro-2H-pyran-4-yl)furan-2-carboxamido)phenyl)-N,N,4-trimethyl-piperidine-4-carboxamide]",> 30000,> 30000,43,21700,800,20700,,,,,,,
"Cc1ccc(N2CCC(C)(O)CC2)c(NC(=O)c2ccc(-c3ccncc3)o2)c1 [Example 8, N-(2-(4-hydroxy-4-methylpiperidin-1-yl)-5-methylphenyl)-5-(pyridin-4-yl)furan-2-carboxamide]",11100,6100,14.4,2900,1100,1700,,,,,,,
"Cc1ccc(N2CCC(O)CC2)c(NC(=O)c2ccc(C3CCOCC3)o2)c1 [Example 36, N-(2-(4-hydroxypiperidin-1-yl)-5-methylphenyl)-5-(tetrahydro-2H-pyran-4-yl)furan-2-carboxamide]",6590,21500,3.7,7500,4940,> 30000,,,,,,,
"O=C(Nc1cc(C(F)(F)F)ccc1N1CCN(Cc2ccccn2)CC1)c1ccc(-c2ccncc2)o1 [Reference Example 1, reference compound]",> 30000,,,230,,310,740,170,,,,,
"O=C(Nc1cc(C(F)(F)F)ccc1N1CCN(Cc2cocn2)CC1)c1ccc(-c2ccncc2)o1 [Reference Example 4, N-(2-(4-(oxazol-4-ylmethyl)piperazin-1-yl)-5-(trifluoromethyl)phenyl)-5-(pyridin-4-yl)furan-2-carboxamide, reference compound]",> 30000,550,,290,170,830,,,,,,,
"5-(pyridin-4-yl)-N-(2-(5-(thiazol-2-ylmethyl)piperazin-1-yl)-5-(trifluoromethyl)phenyl)furan-2-carboxamide [Reference Example 5, reference compound]",,,,,,,,,15200,200,230,250,610
"O=C(Nc1cc(C(F)(F)F)ccc1N1CCN(Cc2ccco2)CC1)c1ccc(-c2ccncc2)o1 [Reference Example 2, N-(2-(4-(furan-2-ylmethyl)piperazin-1-yl)-5-(trifluoromethyl)phenyl)-5-(pyridin-4-yl)furan-2-carboxamide, reference compound]",21800,260,,690,610,1180,,,,,,,
"O=C(Nc1cc(C(F)(F)F)ccc1N1CCC(CO)CC1)c1ccccn1 [Example 31, N-(2-(4-(hydroxymethyl)piperidin-1-yl)-5-(trifluoromethyl)phenyl)picolinamide]",,,41,,,,,,,,,,
"CC1(O)CCCN(c2ccc(C3CC3)cc2NC(=O)c2ccc(-c3ccncc3)o2)CC1 (racemic) [Example 39, N-(5-cyclopropyl-2-(4-hydroxy-4-methylazepan-1-yl)phenyl)-5-(pyridin-4-yl)-furan-2-carboxamide]",17600,> 30000,35,,11500,18300,,,,,,,
"CC1(CN)CCN(c2ccc(C(F)(F)F)cc2NC(=O)c2ccc(C3CCOCC3)o2)CC1 [Example 81, N-(2-(4-(aminomethyl)-4-methylpiperidin-1-yl)-5-(trifluoromethyl)phenyl)-5-(tetrahydro-2H-pyran-4-yl)furan-2-carboxamide]",> 30000,5010,2.6,,23000,21200,,,,,,,
"O=C(Nc1cc(C(F)(F)F)ccc1N1CCCC(O)CC1)c1ccccn1 (racemic) [Example 43, N-(2-(4-hydroxyazepan-1-yl)-5-(trifluoromethyl)-phenyl)picolinamide]",,,3.4,,,,,,,,,,
